Tests used:
[1] = system: YUMM1.7 Braf-mutant melanoma; assay: Syngenic model of murine YUMM1.7 Braf-mutant melanoma: tumor growth, relapse, survival; type: in vivo, mouse
Excerpt: FIG. 2. Nintedanib enhances MAPK-targeted therapy efficacy, delays tumor relapse, improves mice survival and normalizes the pro-fibrotic stromal reaction. Kaplan-Meier survival curves of mice treated with vehicle, Nintedanib, MAPK-targeted therapy (BRAFi+MEKi) or MAPK-targeted therapy plus Nintedanib. Log rank (Mantel-Cox) statistical test was used for MAPK-targeted therapy vs MAPK targeted therapy/Nintedanib. ****p<0.0001.
FIG. 4. Nintedanib, but not Pirfenidone, enhances MAPK-targeted therapy efficacy and delays tumor relapse. Mouse YUMM1.7 cells were injected s.c. into syngeneic C57BL/6 mice. When tumor volume reached 100 mm3, mice were administered vehicle, BRAFi+MEKi combination, Nintedanib, Pirfenidone or the triple combinations of BRAFi+MEKi and Nintedanib or BRAFi+MEKi and Pirfenidone. Representative median graphics show tumor growth following treatment (n=3 mice per group). Treatment: Oral gavage 3 times per week. Vemurafenib (BRAFi): 30 mg/kg; Trametinib (MEKi): 0.3 mg/kg; Nintedanib: 50 mg/kg; Pirfenidone: 100 mg/kg. Oral gavage 3 times per week.
Mouse experiments were carried out according to the Institutional Animal Care and the local ethical committee. 4×105 YUMNI1.7 cells were injected in both flanks of C57BL/6 mice. Tumors were measured with caliper and treatments were started when the tumors reached a volume of 0.1 cm3, after randomization of mice into control and test groups. Vemurafenib (30 mg/kg), Trametinib (0.3 mg/kg), and Nintedanib (50 mg/kg) were administered by oral gavage three times per week. Control mice were treated with vehicle only. Animals were sacrificed when the tumors reached a volume of 1 cm3. After animal sacrifice, tumors were dissected, weighed and snap-frozen in liquid nitrogen for RNA or protein extraction and immunofluorescence analysis (embedded in OCT from Tissue-Tek). Tumors for picrosirius red staining were fixed in formalin.

M238P cells = assay: Viability assay (crystal violet staining of attached cells), BRAFi-sensitive parental cells; type: cell-based, human; conditions: 3 days
Experimental: Melanoma cells were cultured in Dulbecco's modified Eagle medium (DMEM) supplemented with 7% FBS (Hyclone) and 1% penicillin/streptomycin. Resistant cells were continuously exposed to 1 μM of Vemurafenib. […] BRAFi (PLX4032, Vemurafenib), MEKi (GSK1120212, Trametinib) and Nintedanib (BIBF1120) were from Selleckem.

M238R cells [2] = assay: Viability assay (crystal violet staining of attached cells), BRAFi-resistant cells; type: cell-based, human; conditions: 3 days
Experimental: FIG. 1. Nintedanib sensitizes melanoma cells to BRAFi/MEKi therapy and prevents BRAFi/MEKi-driven ECM remodeling. (A) BRAFi-resistant M238R cells were treated with vehicle (Ctrl), Nintedanib (2 μM), Vemurafenib and Trametinib (BRAFi/MEKi, 5 μM) or Vemurafenib/Trametinib (5 μM) plus Nintedanib (2 μM) for 3 days. Cell viability was assessed by crystal violet staining of attached cells. (B) BRAFi-sensitive parental M238P cells were treated with vehicle (Ctrl), Nintedanib (2 μM) Vemurafenib and Trametinib (BRAFi/MEKi, 1 μM) or Vemurafenib/Trametinib (1 μM) plus Nintedanib (2 μM) for 3 days. Cell viability was assessed by crystal violet staining of attached cells. Paired Student t-test has been used for statistical analysis. ****P≤0.0001. Data is represented as mean ±SE from a triplicate representative of at least 3 independent experiments.
The isogenic pair of Vemurafenib-sensitive and -resistant human BRAF-mutated melanoma cells M238 was provided by R. Lo (Nazarian et al., 2010). YUMM1.7 mouse melanoma cells were a kind gift from M. Bosenberg (Meeth et al., 2016). […]
After the indicated treatments, cells were stained with 0.04% crystal violet, 20% ethanol in PBS for 30 min. […] The crystal violet dye is solubilized by 10% acetic acid in PBS and measured by absorbance at 595 nm.

M238R cells [3] = assay: Real-time quantitative PCR gene expression in BRAFi-resistant cells; type: cell-based, human; conditions: data not shown
Experimental: (§1) Total RNA was extracted from tumors and cell samples with the miRNeasy Mini Kit (Qiagen) according to the manufacturer's instructions.
(§2) 1 μg of extracted RNA from cells was reverse transcribed into cDNA using the Multiscribe reverse transcriptase kit provided by Applied Biosystems. Primers were designed using PrimerBank or adopted from published studies. Gene expression levels were measured using Platinum SYBR Green qPCR Supermix (Fisher Scientific) and Step One thermocycler (Applied Biosystem). Results from qPCR were normalized using the reference gene RPL32 and relative gene expression was quantified with the ΔΔCt method. Heatmaps describing gene expression fold changes were prepared using MeV software. cDNAs from tumors were prepared from 100 ng of RNA using Fluidigm Reverse Transcription Master Mix (Fluidigm PN 100-647297). Following a pre-amplification step (Fluidigm® PreAmp Master Mix and DELTAgene™ Assay kits) and exonuclease I treatment, samples diluted in Eva-Green® Supermix with Low ROX were loaded with primer reaction mixes in 96.96 Dynamic Array™ IFCs. Gene expression was then assessed on a Fluidigm BioMark HD instrument. Data were analyzed with real-time PCR analysis software (Fluidigm Corporation), and presented as relative gene expression according to the ΔΔCt method. Heat maps depicting fold changes of gene expression were prepared using MeV software.

M238P melanoma cells = assay: Real-time quantitative PCR gene expression in BRAFi-sensitive cells; type: cell-based, human; conditions: data not shown
Experimental: as §1, §2

YUMM 1.7 tumors = assay: ECM remodeling in YUMM1.7 tumors (picrosirius red collagen staining, qPCR of ECM, myofibroblast and pro-fibrotic markers); type: in vivo, mouse; conditions: co-administration of Nintedanib with MAPKi; data not shown
Experimental: as §2, with “Heatmaps describing gene expression fold changes were prepared using MeV software. cDNAs from tumors were prepared from 100 ng of RNA using Fluidigm Reverse Transcription Master Mix (Fluidigm PN 100-647297).” left out, “[…])” for “DELTAgene™ Assay kits)”, “ArrayTM” for “Array™”, “software. Collagen in paraffin-embedded tumors was stained with picrosirius red using standard protocols as described (Girard et al., 2020). Tumor sections were analyzed by polarized light microscopy. Images were acquired under polarized illumination using a light transmission microscope (Zeiss PALM, at 10× magnification). […]” for “software.”

Structure (SMILES): COC(=O)c1ccc2c(c1)NC(=O)/C2=C(\Nc1ccc(N(C)C(=O)CN2CCN(C)CC2)cc1)c1ccccc1 [Nintedanib]
- effect on MAPK-targeted therapy efficacy and tumor relapse ([1]; BRAFi/MEKi-treated YUMM1.7 melanoma, n=3, Nintedanib 50 mg/kg or Pirfenidone 100 mg/kg added to Vemurafenib 30 mg/kg + Trametinib 0.3 mg/kg): enhances MAPK-targeted therapy efficacy and prevents tumor relapse
- anti-melanoma effect ([1]; YUMM1.7 s.c. in C57BL/6 mice, Nintedanib 50 mg/kg alone, oral gavage three times per week): did not display any anti-melanoma effect
- tumor growth ([1]; YUMM1.7 s.c. in C57BL/6 mice, oral gavage three times per week): slightly slowing down tumor growth but not triggering tumor volume decrease
- cell survival (viability) (M238P cells; BRAFi-sensitive M238P cells, Nintedanib alone (2 μM)): no effect
- effect on the inhibitory effect of BRAFi plus MEKi on cell viability (M238P cells; M238P cells, Nintedanib 2 μM plus Vemurafenib/Trametinib 1 μM): potentiated significantly the inhibitory effect
- cell survival (viability) (M238R cells [2]; BRAFi-resistant M238R cells, Nintedanib alone (2 μM)): no effect
- sensitivity to BRAF and MEK co-inhibition (cell viability) (M238R cells [2]; M238R cells, Nintedanib 2 μM plus Vemurafenib/Trametinib 5 μM): restored sensitivity
- ECM and fibrotic-like signature (M238R cells [3]; Nintedanib at two different doses): reverted
- PDL1 expression (M238R cells [3]): reduced
- BRAFi-induced ECM-related signature and myofibroblast markers such as ACTA2, MYL9 and LOXL2 (M238P melanoma cells): strongly attenuated
- differentiation marker MITF expression (M238P melanoma cells; under BRAFi): prevented the downregulation
- gene expression of phenotypic markers such as PDL1 and NGFR (M238P melanoma cells; under BRAFi): reduced
- MAPKi-induced ECM remodeling responses in tumors (YUMM 1.7 tumors): suppressed
